From EP3708565A1, “PYRIMIDINYLOXYPHENYLAMIDINES AND THE USE THEREOF AS FUNGICIDES” (Bayer AG, priority 2020, dated 2020)

Assays:
[1] = LogP measurement by HPLC on reversed phase columns (EEC directive 79/831 Annex V.A8); type: physicochemical
Protocol: If more than one LogP value is available within the same method, all the values are given and separated by "+".
Lambda-max-values were determined using UV-spectra from 200 nm to 400 nm and the peak values of the chromatographic signals.

Puccinia recondita = assay: in vivo preventive test on Puccinia recondita (brown rust on wheat); details: for pest or weed control at 500 ppm: Puccinia recondita, 264 h, 500 ppm of active ingredient, young wheat plants sprayed, inoculated after 24 hours, evaluated 11 days after the inoculation, read-out: efficacy
Protocol: Example: in vivo preventive test on Puccinia recondita (brown rust on wheat)
(§1) The active ingredients were made soluble and homogenized in a mixture of Dimethyl sulfoxide/Acetone/ /Tween® 80 and then diluted in water to the desired concentration.
The young plants of wheat were treated by spraying the active ingredient prepared as described above. Control plants were treated only with an aqueous solution of Acetone/Dimethyl sulfoxide/ Tween® 80.
After 24 hours, the plants were contaminated by spraying the leaves with an aqueous suspension of Puccinia recondita spores. The contaminated wheat plants were incubated for 24 hours at 20°C and at 100% relative humidity and then for 10 days at 20°C and at 70-80% relative humidity.
The test was evaluated 11 days after the inoculation. 0% means an efficacy which corresponds to that of the control plants while an efficacy of 100% means that no disease was observed.

Sphaerotheca fuliginea = assay: in vivo preventive test on Sphaerotheca fuliginea (powdery mildew on cucurbits); details: Podosphaera fuliginea, 192 h; 500 ppm of active ingredient; young gherkin plants sprayed, inoculated after 24 hours, evaluated 8 days after the inoculation; read-out: efficacy
Protocol: Example: in vivo preventive test on Sphaerotheca fuliginea (powdery mildew on cucurbits)
as §1
The young plants of gherkin were treated by spraying the active ingredient prepared as described above. Control plants were treated only with an aqueous solution of Acetone/Dimethyl sulfoxide/ […].
After 24 hours, the plants were contaminated by spraying the leaves with an aqueous suspension of Sphaerotheca fuliginea spores. The contaminated gherkin plants were incubated for 8 days at 20°C and at 70-80% relative humidity.
The test was evaluated 8 days after the inoculation. 0% means an efficacy which corresponds to that of the control plants while an efficacy of 100% means that no disease was observed.

Phakospora pachyrhizi = assay: in vivo preventive test on Phakospora pachyrhizi (soybean rust); details: for pest or weed control at 500 ppm: Glycine max, 288 h, 500 ppm of active ingredient, young soybean plants sprayed, inoculated after 24 hours, evaluated 12 days after the inoculation, read-out: efficacy
Protocol: Example: in vivo preventive test on Phakospora pachyrhizi (soybean rust)
as §1
The young plants of soybean were treated by spraying the active ingredient prepared as described above. Control plants were treated only with an aqueous solution of Acetone/Dimethyl sulfoxide/ […].
After 24 hours, the plants were contaminated by spraying the leaves with an aqueous suspension of Phakosporapachyrhizi spores. The contaminated soybean plants were incubated for 24 hours at 24°C and at 100% relative humidity and then for 11 days at 24°C and at 70-80% relative humidity.
The test was evaluated 12 days after the inoculation. 0% means an efficacy which corresponds to that of the control plants while an efficacy of 100% means that no disease was observed.

[2] = reversed phase HPLC column, method [a]: LC-UV, acidic range, 0.1% formic acid in water and acetonitrile as eluent
[3] = reversed phase HPLC column, method [b]: LC-UV, neutral range, 0.001 molar ammonium acetate solution in water and acetonitrile as eluent

Row | Structure (SMILES) | chromatographic logP [1, 2] | chromatographic logP [1, 3] | chromatographic logP ([1]; method [a]: LC-UV, acidic range, 0.1% formic acid in water and acetonitrile as eluent) | chromatographic logP ([1]; method [b]: LC-UV, neutral range, 0.001 molar ammonium acetate solution in water and acetonitrile as eluent) | pest or weed control at 500 ppm (Puccinia recondita) [%] | pest or weed control at 500 ppm (Sphaerotheca fuliginea) [%] | pest or weed control at 500 ppm (Phakospora pachyrhizi) [%] | efficacy (Puccinia recondita; 500 ppm) | efficacy (Phakospora pachyrhizi; 500 ppm)
1 | CCN(C)C=Nc1cc(Br)c(Oc2ccnc(SC(C)(C)C)n2)cc1C [I.001, N'-[5-bromo-4-(2-tert-butylsulfanylpyrimidin-4-yl)oxy-2-methylphenyl]-N-ethyl-N-methyl-methanimidamide] | 1.72 | 4.95 | – | – | ≥ 70 | ≥ 70 | ≥ 70 | – | –
2 | CCN(C)C=Nc1cc(C)c(Oc2ccnc(SCCC(C)C)n2)cc1C [I.002, N'-[2,5-dimethyl-4-[2-(3-methylbutylsulfanyl)pyrimidin-4-yl]oxyphenyl]-N-ethyl-N-methyl-methanimidamide] | 1.9 | 5.66 | – | – | ≥ 70 | ≥ 70 | ≥ 70 | – | –
3 | CCN(C)C=Nc1cc(C)c(Oc2ccnc(SCC(F)(F)F)n2)cc1Cl [I.006, N'-[2-chloro-5-methyl-4-[2-(2,2,2-trifluoroethylsulfanyl)pyrimidin-4-yl]oxyphenyl]-N-ethyl-N-methylmethanimidamide] | 1.53 | 4.19 | – | – | ≥ 70 | ≥ 70 | ≥ 70 | – | –
4 | CCN(C)C=Nc1cc(Br)c(Oc2ccnc(SCC(C)C)n2)cc1C [I.007, N'-[5-bromo-2-methyl-4-[2-(2-methylpropylsulfanyl)pyrimidin-4-yl]oxyphenyl]-N-ethyl-N-methylmethanimidamide] | 1.81 | 5.25 | – | – | ≥ 70 | ≥ 70 | ≥ 70 | – | –
5 | CCN(C)C=Nc1cc(C)c(Oc2ccnc(Sc3cccc(F)c3)n2)cc1C [I.009, N-ethyl-N'-[4-[2-(3-fluorophenyl)sulfanylpyrimidin-4-yl]oxy-2,5-dimethylphenyl]-N-methyl-methanimidamide] | 1.66 | – | – | – | ≥ 70 | ≥ 70 | ≥ 70 | – | –
6 | CCN(C)C=Nc1cc(C)c(Oc2ccnc(Sc3ccc(F)cc3)n2)cc1C [I.010, N-ethyl-N'-[4-[2-(4-fluorophenyl)sulfanylpyrimidin-4-yl]oxy-2,5-dimethylphenyl]-N-methyl-methanimidamide] | 1.6 | – | – | – | ≥ 70 | ≥ 70 | ≥ 70 | – | –
7 | CCN(C)C=Nc1cc(C)c(Oc2ccnc(C(C)(C)C)n2)cc1C [I.032, N'-[4-(2-tert-butylpyrimidin-4-yl)oxy-2,5-dimethylphenyl]-N-ethyl-N-methylmethanimidamide] | 1.46 | 4.56 | – | – | ≥ 70 | – | ≥ 70 | – | –
8 | CCN(C)C=Nc1cc(C)c(Oc2ccnc(SC(C)C)n2)cc1Cl [I.046, N'-[2-chloro-5-methyl-4-(2-propan-2-ylsulfanylpyrimidin-4-yl)oxyphenyl]-N-ethyl-N-methyl-methanimidamide] | 1.52 | 4.35 | – | – | ≥ 70 | – | – | – | –
9 | CCN(C)C=Nc1cc(C)c(Oc2ccnc(Sc3ccncc3)n2)cc1C [I.047, N'-[2,5-dimethyl-4-(2-pyridin-4-ylsulfanylpyrimidin-4-yl)oxyphenyl]-N-ethyl-N-methylmethan-imidamide] | 1.13 | – | – | – | – | ≥ 70 | – | – | –
10 | CCN(C)C=Nc1cc(C)c(Oc2ccnc(SCC(C)C)n2)cc1Cl [I.048, N'-[2-chloro-5-methyl-4-[2-(2-methylpropylsulfanyl)pyrimidin-4-yl]oxyphenyl]-N-ethyl-N-methylmethanimidamide] | 1.72 | 4.77 | – | – | ≥ 70 | ≥ 70 | – | – | –
11 | CCN(C)C=Nc1cc(C#N)c(Oc2ccnc(SCC(C)C)n2)cc1C [I.049, N'-[5-cyano-2-methyl-4-[2-(2-methylpropylsulfanyl)pyrimidin-4-yl]oxyphenyl]-N-ethyl-N-methylmethanimidamide] | 1.6 | 4.5 | – | – | ≥ 70 | ≥ 70 | – | – | –
12 | CCCSc1nccc(Oc2cc(C)c(N=CN(C)CC)cc2C#N)n1 [I.050, N'-[5-cyano-2-methyl-4-(2-propylsulfanylpyrimidin-4-yl)oxyphenyl]-N-ethyl-N-methylmethan-imidamide] | 1.44 | 4.16 | – | – | ≥ 70 | ≥ 70 | – | – | –

Continued, in another order:

Row | chromatographic logP [1, 2] | chromatographic logP [1, 3] | chromatographic logP ([1]; method [a]: LC-UV, acidic range, 0.1% formic acid in water and acetonitrile as eluent) | chromatographic logP ([1]; method [b]: LC-UV, neutral range, 0.001 molar ammonium acetate solution in water and acetonitrile as eluent) | Structure (SMILES) | pest or weed control at 500 ppm (Puccinia recondita) [%] | pest or weed control at 500 ppm (Sphaerotheca fuliginea) [%] | pest or weed control at 500 ppm (Phakospora pachyrhizi) [%] | efficacy (Puccinia recondita; 500 ppm) | efficacy (Phakospora pachyrhizi; 500 ppm)
13 | 1.87 | – | – | – | CCC(C)Sc1nccc(Oc2cc(C)c(N=CN(C)CC)cc2C)n1 (racemic) [I.004, N'-[2,5-dimethyl-4-[2-[rac-(2R)-butan-2-yl]sulfanylpyrimidin-4-yl]oxyphenyl]-N-ethyl-N-methylmethanimidamide] | ≥ 70 | ≥ 70 | ≥ 70 | – | –
14 | 1.63 | 4.89 | – | – | CCN(C)C=Nc1cc(C)c(Oc2ccnc(CCC(C)(C)C)n2)cc1C [I.003, N'-[4-[2-(3,3-dimethylbutyl)pyrimidin-4-yl]oxy-2,5-dimethylphenyl]-N-ethyl-N-methylmethan-imidamide] | ≥ 70 | ≥ 70 | ≥ 70 | – | –
15 | 1.58 | 4.66 | – | – | CCN(C)C=Nc1cc(Br)c(Oc2ccnc(SCC(F)(F)F)n2)cc1C [I.005, N'-[5-bromo-2-methyl-4-[2-(2,2,2-trifluoroethylsulfanyl)pyrimidin-4-yl]oxyphenyl]-N-ethyl-N-methylmethanimidamide] | ≥ 70 | ≥ 70 | ≥ 70 | – | –
16 | 1.6 | – | – | – | CCN(C)C=Nc1cc(C)c(Oc2ccnc(Sc3ccccc3F)n2)cc1C [I.008, N-ethyl-N'-[4-[2-(2-fluorophenyl)sulfanylpyrimidin-4-yl]oxy-2,5-dimethylphenyl]-N-methyl-methanimidamide] | ≥ 70 | ≥ 70 | ≥ 70 | – | –
17 | 1.86 | – | – | – | CCN(C)C=Nc1cc(C)c(Oc2ccnc(SC3CCCCC3)n2)cc1C [I.011, N'-[4-(2-cyclohexylsulfanylpyrimidin-4-yl)oxy-2,5-dimethylphenyl]-N-ethyl-N-methylmethan-imidamide] | ≥ 70 | ≥ 70 | ≥ 70 | – | –
18 | 1.61 | 5.06 | – | – | CCN(C)C=Nc1cc(C)c(Oc2ccnc(SCC(C)C)n2)cc1C [I.026, N'-[2,5-dimethyl-4-[2-(2-methylpropylsulfanyl)pyrimidin-4-yl]oxyphenyl]-N-ethyl-N-methyl-methanimidamide] | ≥ 70 | – | ≥ 70 | – | –
19 | 1.93 | – | – | – | CCN(C)C=Nc1cc(C(F)(F)F)c(Oc2ccnc(SCC(C)C)n2)cc1C [I.035, N-ethyl-N-methyl-N'-[2-methyl-4-[2-(2-methylpropylsulfanyl)pyrimidin-4-yl]oxy-5-(trifluoromethyl)phenyl]methanimidamide] | ≥ 70 | – | ≥ 70 | – | –
20 | – | – | 1.58 | 4.93 | CCN(C)C=Nc1cc(Br)c(Oc2ccnc(C(C)(C)C)n2)cc1C [I.038, N'-[5-bromo-4-(2-tert-butylpyrimidin-4-yl)oxy-2-methylphenyl]-N-ethyl-N-methylmethanimid-amide] | – | – | – | at least 70% | at least 70%
21 | 1.9 | – | – | – | CCN(C)C=Nc1cc(C(F)F)c(Oc2nc(SCC(C)C)ncc2C)cc1C [I.051, N'-[5-(difluoromethyl)-2-methyl-4-[5-methyl-2-(2-methylpropylsulfanyl)pyrimidin-4-yl]oxyphenyl]-N-ethyl-N-methylmethanimidamide] | – | ≥ 70 | – | – | –
